From US4406899A, “Cephalosporins” (Bristol-Myers Company, priority 1982, dated 1983)
Values after ≈ are worked out from the molar mass of the structure shown. Where two headings read alike, the source gives them in different places.

Experiments:
[1] = tested on: Penicillinsensitive S. aureus (5 strains); experiment: MIC, two-fold serial agar dilution, group (G+)-Ia; format: cell-based; conditions: Staphylococcus aureus, read-out: Geometric Mean of MIC (G+)-Ia (5 strains)
Method: (§1) In the primary evaluation of the compounds of this invention, the Minimum Inhibitory Concentrations (MIC's) of the compounds and two reference compounds (cefotaxime and ceftazidime) were determined by the two-fold serial agar dilution method in Mueller-Hinton agar against 32 strains of test organisms in six groups.

[2] = tested on: Penicillinresistant S. aureus (5 strains); experiment: MIC, two-fold serial agar dilution, group (G+)-Ib; format: cell-based; conditions: Staphylococcus aureus, read-out: Geometric Mean of MIC (G+)-Ib (5)
Method: as §1
(G+)Ib: Penicillinresistant S. aureus (5 strains)

[3] = tested on: Cephalothinsensitive E. coli (2 strains), Kl. pneumoniae (1 strain) and Pr. mirabilis (2 strains); experiment: MIC, two-fold serial agar dilution, group (G-)-Ia; format: cell-based; conditions: Mueller-Hinton agar; cephalothin-sensitive; read-out: Geometric Mean of MIC (G-)-Ia (5)
Method: The preferred compounds of Formula I are those in which R^1 is hydrogen and R^2 is methyl or ethyl. In the most preferred compound, R^2 is methyl. In the primary evaluation of the compounds of this invention, the Minimum Inhibitory Concentrations (MIC's) of the compounds and two reference compounds (cefotaxime and ceftazidime) were determined by the two-fold serial agar dilution method in Mueller-Hinton agar against 32 strains of test organisms in six groups.
(G-)Ia: Cephalothinsensitive E. coli (2 strains), Kl. pneumoniae (1
strain) and Pr. mirabilis (2 strains)

[4] = tested on: Cephalothinresistant E. coli (3 strains) and Kl. pneumoniae (3 strains); experiment: MIC, two-fold serial agar dilution, group (G-)-Ib; format: cell-based; conditions: Escherichia coli, read-out: Geometric Mean of MIC (G-)-Ib (6)
Method: as §1

[5] = tested on: Pr. morganii (1 strain), Ent. cloacae (2 strains) and Ser. marcescens (2 strains); experiment: MIC, two-fold serial agar dilution, group (G-)-II; format: cell-based; conditions: read-out: Geometric Mean of MIC (G-)-II (5)
Method: as §1

[6] = tested on: Ps. aeruginosa (6 strains); experiment: MIC, two-fold serial agar dilution, group (G-)-III; format: cell-based; conditions: for MIC: Pseudomonas aeruginosa, read-out: Geometric Mean of MIC (G-)-III (6)
Method: as §1

[7] = Blood levels after single intramuscular administration to mice; conditions: mouse, blood, im, 20 mg/kg
Excerpt: Blood samples were collected from the orbital sinuses into heparinized capillary tubes and assayed in Mueller-Hinton medium using Morganella morganii A9695 as the test organism.

[8] = tested on: Escherichia coli; experiment: MIC, resistant Enterobacteriaceae, Escherichia coli; format: cell-based
[9] = tested on: Klebsiella pneumoniae; experiment: MIC, resistant Enterobacteriaceae, Klebsiella pneumoniae; format: cell-based; conditions: read-out: Geometric Mean MIC
[10] = tested on: Enterobacter aerogenes; experiment: MIC, resistant Enterobacteriaceae, Enterobacter aerogenes; format: cell-based; conditions: Klebsiella aerogenes
[11] = tested on: Enterobacter cloacae; experiment: MIC, resistant Enterobacteriaceae, Enterobacter cloacae; format: cell-based
[12] = tested on: Citrobacter freundii; experiment: MIC, resistant Enterobacteriaceae, Citrobacter freundii; format: cell-based; conditions: read-out: Geometric Mean MIC
[13] = tested on: Citrobacter species; experiment: MIC, resistant Enterobacteriaceae, Citrobacter species; format: cell-based; conditions: read-out: Geometric Mean MIC
[14] = tested on: Proteus vulgaris; experiment: MIC, resistant Enterobacteriaceae, Proteus vulgaris; format: cell-based; conditions: read-out: Geometric Mean MIC
[15] = tested on: Morganella morganii; experiment: MIC, resistant Enterobacteriaceae, Morganella morganii; format: cell-based; conditions: read-out: Geometric Mean MIC
[16] = tested on: Serratia marcescens; experiment: MIC, resistant Enterobacteriaceae, Serratia marcescens; format: cell-based
[17] = tested on: 240 strains of Enterobacteriaceae; conditions: resistant: MIC ≥8 μg/ml; 27 of 240 strains resistant to at least one compound
[18] = read-out: Geometric Mean MIC, Mueller-Hinton medium, 3 strains
[19] = read-out: Geometric Mean MIC, Mueller-Hinton medium, 1 strain (first E. cloacae line)
[20] = read-out: Geometric Mean MIC, Mueller-Hinton medium, 1 strain (fourth E. cloacae line)
[21] = read-out: Geometric Mean MIC, Mueller-Hinton medium, 3 strains (third E. cloacae line)
[22] = read-out: Geometric Mean MIC, Mueller-Hinton medium, 1 strain (first S. marcescens line)
[23] = read-out: Geometric Mean MIC, Mueller-Hinton medium, 1 strain (fourth S. marcescens line)
[24] = read-out: Geometric Mean MIC, Mueller-Hinton medium, 1 strain (second S. marcescens line)
[25] = read-out: Geometric Mean MIC, Mueller-Hinton medium, 1 strain (sixth S. marcescens line)
[26] = Mueller-Hinton agar, penicillin-sensitive S. aureus
[27] = Mueller-Hinton agar, Ps. aeruginosa
[28] = Mueller-Hinton medium, 1 strain

Row | Structure (SMILES) | MIC [2] [µg/mL] | MIC [3] [µg/mL] | MIC [4] [µg/mL] | AUC [7] [ng·h/mL] | concentration at 10 min [7] [ng/mL] | concentration at 20 min [7] [ng/mL] | concentration at 0.5 h [7] [ng/mL] | concentration at 0.75 h [7] [ng/mL] | concentration at 1 h [7] [ng/mL] | concentration at 1.5 h [7] [ng/mL] | half-life [7] [min] | MIC [10, 18] [µg/mL] | MIC [11, 19] [µg/mL] | MIC [11, 20] [µg/mL] | MIC [11, 21] [µg/mL] | MIC [16, 22] [µg/mL] | MIC [16, 23] [µg/mL] | MIC [1, 26] [µg/mL] | MIC ([5]; Mueller-Hinton agar) [µg/mL] | MIC [6, 27] [µg/mL] | other results
1 | CC(C)(O/N=C(\C(=O)N[C@@H]1C(=O)N2C(C(=O)[O-])=C(C[n+]3ccccc3)CS[C@H]12)c1csc(N)n1)C(=O)O [Ceftazidime] | 12 (≈ 22 µM) | 0.07 (≈ 0.128 µM) | 1.7 (≈ 3.11 µM) | 13800 | 21500 | 18400 | 14900 | 8700 | 4400 | ~800 | 17 | 32 (≈ 58.5 µM) | 4 (≈ 7.32 µM) | > 63 | > 63 | 1 (≈ 1.83 µM) | 8 (≈ 14.6 µM) | – | – | – | MIC [1]: 5.1 µg/mL (≈ 9.33 µM); MIC [5]: 2.6 µg/mL (≈ 4.76 µM); MIC [6]: 1.8 µg/mL (≈ 3.29 µM); susceptibility of (G-)-III group, ceftazidime compared with Compound Ia ([6]; comparison of geometric mean MICs): somewhat more susceptible to ceftazidime; MIC ([8]; read-out: Geometric Mean MIC): 32 µg/mL (≈ 58.5 µM); MIC ([8]; read-out: Geometric Mean MIC, Mueller-Hinton medium, 1 strain (second E. coli line)): 0.5 µg/mL (≈ 0.915 µM); MIC [9]: 16 µg/mL (≈ 29.3 µM); MIC ([10]; read-out: Geometric Mean MIC, Mueller-Hinton medium, 1 strain): 8 µg/mL (≈ 14.6 µM); MIC ([11]; read-out: Geometric Mean MIC, Mueller-Hinton medium, 3 strains (second E. cloacae line)): 40 µg/mL (≈ 73.2 µM); MIC [12]: 45 µg/mL (≈ 82.3 µM); MIC [13]: > 63 µg/mL; MIC [14]: 8 µg/mL (≈ 14.6 µM); MIC [15]: 32 µg/mL (≈ 58.5 µM); MIC ([16]; read-out: Geometric Mean MIC, Mueller-Hinton medium, 1 strain (fifth S. marcescens line)): 16 µg/mL (≈ 29.3 µM); MIC [16, 24]: 8 µg/mL (≈ 14.6 µM); MIC [16, 25]: > 63 µg/mL; MIC ([16]; read-out: Geometric Mean MIC, Mueller-Hinton medium, 2 strains (third S. marcescens line)): 2 µg/mL (≈ 3.66 µM); Total Number of Resistant Strains [17]: 15
2 | CC(C)O/N=C(\C(=O)NC1C(=O)N2C(C(=O)[O-])=C(C[N+]3(C)CCCC3)CSC12)c1csc(N)n1 (stereo not drawn) [Compound Ic, 7-[(Z)-2-(2-Propoxyimino)-2-(2-aminothiazol-4-yl)acetamido]-3-[(1-methyl-1-pyrrolidinium)methyl]-3-cephem-4-carboxylate] | 3.6 (≈ 7.08 µM) | 0.35 (≈ 0.688 µM) | 1.3 (≈ 2.56 µM) | – | – | – | – | – | – | – | – | – | – | – | – | – | – | 1.4 (≈ 2.75 µM) | 3.2 (≈ 6.29 µM) | 11 (≈ 21.6 µM) | –
3 | C=CCO/N=C(\C(=O)NC1C(=O)N2C(C(=O)[O-])=C(C[N+]3(C)CCCC3)CSC12)c1csc(N)n1 (stereo not drawn) [Id, 7-[(Z)-2-Allyloxyimino-2-(2-aminothiazol-4-yl)acetamido]-3-[(1-methyl-1-pyrrolidinium)methyl]-3-cephem-4-carboxylate] | 3.6 (≈ 7.11 µM) | 0.53 (≈ 1.05 µM) | 1.1 (≈ 2.17 µM) | – | – | – | – | – | – | – | – | – | – | – | – | – | – | 1.8 (≈ 3.55 µM) | 2.4 (≈ 4.74 µM) | 13 (≈ 25.7 µM) | –
4 | CCO/N=C(\C(=O)NC1C(=O)N2C(C(=O)[O-])=C(C[N+]3(C)CCCC3)CSC12)c1csc(N)n1 (stereo not drawn) [Ib, 7-[(Z)-2-Ethoxyimino-2-(2-aminothiazol-4-yl)acetamido]-3-[(1-methyl-1-pyrrolidinium)methyl]-3-cephem-4-carboxylate] | 3.1 (≈ 6.27 µM) | 0.087 (≈ 0.176 µM) | 0.32 (≈ 0.647 µM) | – | – | – | – | – | – | – | – | – | – | – | – | – | – | 1.4 (≈ 2.83 µM) | 1 (≈ 2.02 µM) | 5.6 (≈ 11.3 µM) | –
5 | CO/N=C(\C(=O)N[C@@H]1C(=O)N2C(C(=O)O)=C(COC(C)=O)CS[C@H]12)c1csc(N)n1 [Cefotaxime] | 2.2 (≈ 4.83 µM) | 0.015 (≈ 0.0329 µM) | 0.35 (≈ 0.768 µM) | 14900 | 27800 | 19300 | 13000 | 9100 | 4600 | 1200 | 15 | 13 (≈ 28.5 µM) | 8 (≈ 17.6 µM) | > 63 | > 63 | 16 (≈ 35.1 µM) | 63 (≈ 138 µM) | 1 (≈ 2.2 µM) | 4.1 (≈ 9 µM) | 22 (≈ 48.3 µM) | MIC ([8]; Mueller-Hinton medium, 1 strain (first E. coli line), read-out: Geometric Mean MIC): 8 µg/mL (≈ 17.6 µM); MIC ([8]; Mueller-Hinton medium, 1 strain (second E. coli line), read-out: Geometric Mean MIC): 8 µg/mL (≈ 17.6 µM); MIC [9, 28]: 0.13 µg/mL (≈ 0.285 µM); MIC ([10]; Mueller-Hinton medium, 1 strain, read-out: Geometric Mean MIC): 32 µg/mL (≈ 70.3 µM); MIC ([11]; Mueller-Hinton medium, 3 strains (second E. cloacae line), read-out: Geometric Mean MIC): 50 µg/mL (≈ 110 µM); MIC ([12]; Mueller-Hinton medium, 2 strains): 32 µg/mL (≈ 70.3 µM); MIC [13, 28]: 32 µg/mL (≈ 70.3 µM); MIC [14, 28]: 8 µg/mL (≈ 17.6 µM); MIC [15, 28]: 32 µg/mL (≈ 70.3 µM); MIC ([16]; Mueller-Hinton medium, 1 strain (fifth S. marcescens line), read-out: Geometric Mean MIC): 8 µg/mL (≈ 17.6 µM); MIC ([16]; Mueller-Hinton medium, 2 strains (third S. marcescens line), read-out: Geometric Mean MIC): 11 µg/mL (≈ 24.2 µM); MIC [16, 24]: 16 µg/mL (≈ 35.1 µM); MIC [16, 25]: > 63 µg/mL; Total Number of Resistant Strains [17]: 18
